The values that follow come from paper PMC10987797, “Functional characterization of Capsicum chinense vanillin aminotransferase: Detection of vanillylamine-forming activity from vanillin” (Biochemistry and Biophysics Reports, 2024).

What all share (type): biochemical
Assay [1] deals with T1, VAMT (vanillin aminotransferase; rVAMT) (Capsicum chinense, UniProt O82521).
T1 construct: full length, N-terminal His6-tag (pET28a) cut off by thrombin; recombinant from E. coli Rosetta2 (DE3)
The experiment in a line: HPLC assay of vanillylamine glucoside formation, Michaelis-Menten fit. To be noted: 100 mM GABA as amino donor, 0.1 mM PLP, 50 mM potassium phosphate pH 8.0; standard assay 30 °C. An excerpt: HPLC assay of vanillylamine glucoside formation, Michaelis-Menten fit on VAMT (vanillin aminotransferase; rVAMT)

Assay [2] has as its target T1, VAMT (vanillin aminotransferase; rVAMT). The experiment in a line: HPLC assay of vanillylamine formation, Michaelis-Menten fit. The conditions noted are these: 0.1 mM PLP, 50 mM potassium phosphate pH 8.0, standard assay 30 °C, ping-pong. From the text: HPLC assay of vanillylamine formation, Michaelis-Menten fit on VAMT (vanillin aminotransferase; rVAMT)
The target is the same in assay [3]. Kind of assay: HPLC assay of vanillin formation, Michaelis-Menten fit. To be noted: 0.1 mM PLP, 50 mM potassium phosphate pH 8.0, standard assay 30 °C. From the text: HPLC assay of vanillin formation, Michaelis-Menten fit on VAMT (vanillin aminotransferase; rVAMT)
The target is the same in assay [4]. Kind of assay: HPLC assay of vanillin glucoside formation, Michaelis-Menten fit. The conditions noted are these: 100 mM pyruvate as amino acceptor, 0.1 mM PLP, 50 mM potassium phosphate pH 8.0; standard assay 30 °C. An excerpt:
HPLC assay of vanillin glucoside formation, Michaelis-Menten fit on VAMT (vanillin aminotransferase; rVAMT)

SMILES strings stand for the structures.

T1 sequence (O82521 whole entry): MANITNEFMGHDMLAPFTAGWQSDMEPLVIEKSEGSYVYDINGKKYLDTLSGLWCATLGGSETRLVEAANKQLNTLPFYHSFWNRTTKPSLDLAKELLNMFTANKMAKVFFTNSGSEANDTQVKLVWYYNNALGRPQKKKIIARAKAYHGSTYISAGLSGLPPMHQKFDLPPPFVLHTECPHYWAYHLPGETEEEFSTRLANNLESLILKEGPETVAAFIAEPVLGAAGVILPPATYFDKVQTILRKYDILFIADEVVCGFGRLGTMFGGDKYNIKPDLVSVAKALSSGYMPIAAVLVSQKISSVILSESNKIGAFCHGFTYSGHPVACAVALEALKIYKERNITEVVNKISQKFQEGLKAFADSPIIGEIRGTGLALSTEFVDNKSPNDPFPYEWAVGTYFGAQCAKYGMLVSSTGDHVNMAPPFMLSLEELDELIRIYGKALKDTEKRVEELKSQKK

For orientation: Km means the concentration of substrate that gives half-maximal velocity. Consider `COc1cc(C=O)ccc1O[C@@H]1O[C@H](CO)[C@@H](O)[C@H](O)[C@H]1O` [VG], for which the Michaelis constant (Km) in assay [1] turned out to be 3.3 ± 0.56 mM.

Take `NCCCC(=O)O` [GABA]: the Km in assay [2] (5 mM vanillin as amino acceptor) was determined as 36 ± 2.1 mM.

Turning to `CC(=O)C(=O)O` [Na pyruvate], the Km in assay [3] (5 mM vanillylamine as amino donor) is 5.4 ± 0.34 mM.

As to `COc1cc(CN)ccc1O[C@@H]1O[C@H](CO)[C@@H](O)[C@H](O)[C@H]1O` [VAG], the Michaelis-Menten constant (Km) in assay [4] was found to be 15 ± 4.8 mM.

Turning to `COc1cc(C=O)ccc1O` [V], in assay [2] (100 mM GABA as amino donor), the Km came to 0.48 ± 0.049 mM.

For the compound `COc1cc(CN)ccc1O` [VA], in assay [3] (100 mM pyruvate as amino acceptor), the Km was found to be 0.25 ± 0.037 mM.
